Results published in patent US20230085307A1, “PYRIDAZINONE COMPOUND AND HERBICIDE” (NISSAN CHEMICAL CORPORATION, priority 2019, published 2023).

Legend:
oval-leafed pondweed [1] = assay: Test Example 1: herbicidal activity, application before weed generation under submerged conditions (Table 16, symbol C); format: in vivo, oval-leafed pondweed (Monochoria vaginalis)
Outline: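 Emulsion formulation, water-diluted to set dose, was put onto the flooded surface (4 cm depth, alluvial soil) the same day weeds were sown and 2.5-leaf rice transplanted. After 3 weeks at 25-30 °C under glass, each species was rated 0 (≤5% kill) to 5 (≥90% kill).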

late watergrass = assay: Test Example 2: herbicidal activity, application during weed generation under submerged conditions (Table 17, symbol A); format: in vivo, late watergrass (Echinochloa oryzicola); details: application during weed generation, submerged conditions
Outline: (§1)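 Effect on each weed is rated three weeks post-treatment, using the same scoring criteria as the preceding test. Plants grow from mixed-sown seed in flooded alluvial soil (4 cm water) at 25° C. to 30° C., and are treated at one to two leaves with diluted emulsion dropped onto the water.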

oval-leafed pondweed [2] = assay: Test Example 2: herbicidal activity, application during weed generation under submerged conditions (Table 17, symbol C); format: in vivo, oval-leafed pondweed (Monochoria vaginalis); details: application during weed generation, submerged conditions
Outline: as §1

rice flat sedge = assay: Test Example 3: herbicidal effect by foliage application, Wagner pot (Table 18, symbol E); format: in vivo, rice flat sedge (Cyperus iria)
Outline: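 Plants were sown in alluvial soil held under 0.1–0.5 cm standing water and grown 14 days in a greenhouse at 25–30 °C. An emulsifiable formulation, water-diluted to the set dose, was then sprayed onto the foliage, and effects were scored three weeks later using previously defined criteria.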

green foxtail [3] = assay: Test Example 4: herbicidal effect by soil treatment (Table 19, symbol G); format: in vivo, green foxtail (Setaria viridis)
Outline: (§2)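 Seeds were sown in sterilized diluvial soil and covered with about 1.5 cm of soil. An emulsion formulation diluted with water to a predetermined herbicide amount was sprayed evenly onto the soil surface. Plants grew in a greenhouse at 25° C. to 30° C., and the effect was scored three weeks after application using criteria from an earlier test.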

wild oat [4] = assay: Test Example 4: herbicidal effect by soil treatment (Table 19, symbol I); format: in vivo, wild oat (Avena fatua)
Outline: as §2

blackgrass = assay: Test Example 4: herbicidal effect by soil treatment (Table 19, symbol J); format: in vivo, blackgrass (Alopecurus myosuroides)
Outline: as §2

Italian ryegrass [5] = assay: Test Example 4: herbicidal effect by soil treatment (Table 19, symbol K); format: in vivo, Italian ryegrass (Lolium multiflorum)
Outline: as §2

velvetleaf [6] = assay: Test Example 4: herbicidal effect by soil treatment (Table 19, symbol M); format: in vivo, velvetleaf (Abutilon theophrasti)
Outline: as §2

redroot pigweed = assay: Test Example 4: herbicidal effect by soil treatment (Table 19, symbol N); format: in vivo, redroot pigweed (Amaranthus retroflexus)
Outline: as §2

chickweed = assay: Test Example 4: herbicidal effect by soil treatment (Table 19, symbol P); format: in vivo, common chickweed (Stellaria media)
Outline: as §2

southern crabgrass = assay: Test Example 5: herbicidal effect by foliage application, plastic box (Table 20, symbol F); format: in vivo, southern crabgrass (Digitaria ciliaris); details: foliage application, 3 weeks after application
Outline: (§3)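 Plants sown in sterilized diluvial soil and grown 14 days in a greenhouse at 25° C to 30° C, then sprayed on the foliage with the compound's emulsion diluted in water to a predetermined herbicide amount. Injury to weeds and crops scored three weeks after application on a visual rating scale.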

green foxtail [7] = assay: Test Example 5: herbicidal effect by foliage application, plastic box (Table 20, symbol G); format: in vivo, green foxtail (Setaria viridis); details: foliage application, 3 weeks after application
Outline: as §3

wild oat [8] = assay: Test Example 5: herbicidal effect by foliage application, plastic box (Table 20, symbol I); format: in vivo, wild oat (Avena fatua); details: foliage application, 3 weeks after application
Outline: as §3

Italian ryegrass [9] = assay: Test Example 5: herbicidal effect by foliage application, plastic box (Table 20, symbol K); format: in vivo, Italian ryegrass (Lolium multiflorum); details: foliage application, 3 weeks after application
Outline: as §3

velvetleaf [10] = assay: Test Example 5: herbicidal effect by foliage application, plastic box (Table 20, symbol M); format: in vivo, velvetleaf (Abutilon theophrasti); details: foliage application, 3 weeks after application
Outline: as §3

persian speedwell = assay: Test Example 5: herbicidal effect by foliage application, plastic box (Table 20, symbol R); format: in vivo, Persian speedwell (Veronica persica); details: foliage application, 3 weeks after application
Outline: as §3

Row | Compound | Herbicidal effect on C: oval-leafed pondweed (grade 0-5) (oval-leafed pondweed [1]; 320 g/ha applied herbicide) | herbicidal effect rating, A: late watergrass (late watergrass; AAH 320 g/ha) | herbicidal effect rating, C: oval-leafed pondweed (oval-leafed pondweed [2]; AAH 320 g/ha) | herbicidal effect on E (rice flat sedge), rating 0-5 (rice flat sedge; 320 g/ha) | G: green foxtail, herbicidal effect rating (green foxtail [3]; AAH 320 g/ha) | I: wild oat, herbicidal effect rating (wild oat [4]; AAH 320 g/ha) | J: blackgrass, herbicidal effect rating (blackgrass; AAH 320 g/ha) | K: Italian ryegrass, herbicidal effect rating (Italian ryegrass [5]; AAH 320 g/ha) | M: velvetleaf, herbicidal effect rating (velvetleaf [6]; AAH 320 g/ha) | N: redroot pigweed, herbicidal effect rating (redroot pigweed; AAH 320 g/ha) | P: chickweed, herbicidal effect rating (chickweed; AAH 320 g/ha) | effect on southern crabgrass (F) (southern crabgrass; 320 g/ha) | effect on green foxtail (G) (green foxtail [7]; 320 g/ha) | effect on wild oat (I) (wild oat [8]; 320 g/ha) | effect on Italian ryegrass (K) (Italian ryegrass [9]; 320 g/ha) | effect on velvetleaf (M) (velvetleaf [10]; 320 g/ha) | effect on persian speedwell (R) (persian speedwell; 320 g/ha) | also measured
1 | C#CC(C)Oc1ccc(-c2sc3ccccc3c2-c2c(O)c(C)nn(C)c2=O)cc1 (racemic) [1-217] | 3 (Herbicidal rate of 40% or more and less than 70%) | 0 (Herbicidal rate of 5% or less (almost no effect)) | 3 (Herbicidal rate of 40% or more and less than 70%) | 3 (Herbicidal rate of 40% or more and less than 70%) | 3 (Herbicidal rate of 40% or more and less than 70%) | 0 (Herbicidal rate of 5% or less (almost no effect)) | 0 (Herbicidal rate of 5% or less (almost no effect)) | 0 (Herbicidal rate of 5% or less (almost no effect)) | 0 (Herbicidal rate of 5% or less (almost no effect)) | 4 (Herbicidal rate of 70% or more and less than 90%) | 5 (Herbicidal rate of 90% or more (almost completely withered)) | 4 (Herbicidal rate of 70% or more and less than 90%) | 4 (Herbicidal rate of 70% or more and less than 90%) | 3 (Herbicidal rate of 40% or more and less than 70%) | 5 (Herbicidal rate of 90% or more (almost completely withered)) | 5 (Herbicidal rate of 90% or more (almost completely withered)) | 5 (Herbicidal rate of 90% or more (almost completely withered)) | 
2 | C#CC(C)Oc1ccc(-c2sc3ccccc3c2-c2c(OCOCCOC)c(C)nn(C)c2=O)cc1 (racemic) [1-218] |  |  |  |  |  |  |  |  |  |  |  |  |  |  |  |  |  | Herbicidal effect on C: oval-leafed pondweed (grade 0-5) (oval-leafed pondweed [1]; 100 g/ha applied herbicide): 0 (Herbicidal rate of 5% or less (almost no effect)); herbicidal effect rating, A: late watergrass (late watergrass; AAH 100 g/ha): 3 (Herbicidal rate of 40% or more and less than 70%); herbicidal effect rating, C: oval-leafed pondweed (oval-leafed pondweed [2]; AAH 100 g/ha): 4 (Herbicidal rate of 70% or more and less than 90%); herbicidal effect on E (rice flat sedge), rating 0-5 (rice flat sedge; 100 g/ha): 4 (Herbicidal rate of 70% or more and less than 90%); G: green foxtail, herbicidal effect rating (green foxtail [3]; AAH 187 g/ha): 3 (Herbicidal rate of 40% or more and less than 70%); I: wild oat, herbicidal effect rating (wild oat [4]; AAH 187 g/ha): 0 (Herbicidal rate of 5% or less (almost no effect)); J: blackgrass, herbicidal effect rating (blackgrass; AAH 187 g/ha): 0 (Herbicidal rate of 5% or less (almost no effect)); K: Italian ryegrass, herbicidal effect rating (Italian ryegrass [5]; AAH 187 g/ha): 0 (Herbicidal rate of 5% or less (almost no effect)); M: velvetleaf, herbicidal effect rating (velvetleaf [6]; AAH 187 g/ha): 0 (Herbicidal rate of 5% or less (almost no effect)); N: redroot pigweed, herbicidal effect rating (redroot pigweed; AAH 187 g/ha): 2 (Herbicidal rate of 20% or more and less than 40%); P: chickweed, herbicidal effect rating (chickweed; AAH 187 g/ha): 1 (Herbicidal rate of 5% or more and less than 20%); effect on southern crabgrass (F) (southern crabgrass; 187 g/ha): 0 (Herbicidal rate of 5% or less (almost no effect)); effect on green foxtail (G) (green foxtail [7]; 187 g/ha): 5 (Herbicidal rate of 90% or more (almost completely withered)); effect on wild oat (I) (wild oat [8]; 187 g/ha): 0 (Herbicidal rate of 5% or less (almost no effect)); effect on Italian ryegrass (K) (Italian ryegrass [9]; 187 g/ha): 2 (Herbicidal rate of 20% or more and less than 40%); effect on velvetleaf (M) (velvetleaf [10]; 187 g/ha): 4 (Herbicidal rate of 70% or more and less than 90%); effect on persian speedwell (R) (persian speedwell; 187 g/ha): 5 (Herbicidal rate of 90% or more (almost completely withered))
3 | COCC(C)Oc1ccc(-c2sc3ccccc3c2-c2c(O)c(C)nn(C)c2=O)cc1 (racemic) [1-228] | 4 (Herbicidal rate of 70% or more and less than 90%) | 5 (Herbicidal rate of 90% or more (almost completely withered)) | 3 (Herbicidal rate of 40% or more and less than 70%) | 4 (Herbicidal rate of 70% or more and less than 90%) | 5 (Herbicidal rate of 90% or more (almost completely withered)) | 0 (Herbicidal rate of 5% or less (almost no effect)) | 4 (Herbicidal rate of 70% or more and less than 90%) | 4 (Herbicidal rate of 70% or more and less than 90%) | 4 (Herbicidal rate of 70% or more and less than 90%) | 5 (Herbicidal rate of 90% or more (almost completely withered)) | 4 (Herbicidal rate of 70% or more and less than 90%) | 5 (Herbicidal rate of 90% or more (almost completely withered)) | 5 (Herbicidal rate of 90% or more (almost completely withered)) | 0 (Herbicidal rate of 5% or less (almost no effect)) | 4 (Herbicidal rate of 70% or more and less than 90%) | 5 (Herbicidal rate of 90% or more (almost completely withered)) | 5 (Herbicidal rate of 90% or more (almost completely withered)) | 
4 | CCC(COc1ccc(-c2sc3ccccc3c2-c2c(O)c(C)nn(C)c2=O)cc1)OC (racemic) [1-230] | 4 (Herbicidal rate of 70% or more and less than 90%) | 4 (Herbicidal rate of 70% or more and less than 90%) | 4 (Herbicidal rate of 70% or more and less than 90%) | 3 (Herbicidal rate of 40% or more and less than 70%) | 4 (Herbicidal rate of 70% or more and less than 90%) | 0 (Herbicidal rate of 5% or less (almost no effect)) | 4 (Herbicidal rate of 70% or more and less than 90%) | 4 (Herbicidal rate of 70% or more and less than 90%) | 4 (Herbicidal rate of 70% or more and less than 90%) | 5 (Herbicidal rate of 90% or more (almost completely withered)) | 2 (Herbicidal rate of 20% or more and less than 40%) | 5 (Herbicidal rate of 90% or more (almost completely withered)) | 5 (Herbicidal rate of 90% or more (almost completely withered)) | 4 (Herbicidal rate of 70% or more and less than 90%) | 4 (Herbicidal rate of 70% or more and less than 90%) | 5 (Herbicidal rate of 90% or more (almost completely withered)) | 5 (Herbicidal rate of 90% or more (almost completely withered)) | 
